Read-outs that look alike come from different tables or passages of the source.
Biological target: T1, SIRT1 (Homo sapiens, UniProt Q96EB6)
T1 sequence (Q96EB6 1-747): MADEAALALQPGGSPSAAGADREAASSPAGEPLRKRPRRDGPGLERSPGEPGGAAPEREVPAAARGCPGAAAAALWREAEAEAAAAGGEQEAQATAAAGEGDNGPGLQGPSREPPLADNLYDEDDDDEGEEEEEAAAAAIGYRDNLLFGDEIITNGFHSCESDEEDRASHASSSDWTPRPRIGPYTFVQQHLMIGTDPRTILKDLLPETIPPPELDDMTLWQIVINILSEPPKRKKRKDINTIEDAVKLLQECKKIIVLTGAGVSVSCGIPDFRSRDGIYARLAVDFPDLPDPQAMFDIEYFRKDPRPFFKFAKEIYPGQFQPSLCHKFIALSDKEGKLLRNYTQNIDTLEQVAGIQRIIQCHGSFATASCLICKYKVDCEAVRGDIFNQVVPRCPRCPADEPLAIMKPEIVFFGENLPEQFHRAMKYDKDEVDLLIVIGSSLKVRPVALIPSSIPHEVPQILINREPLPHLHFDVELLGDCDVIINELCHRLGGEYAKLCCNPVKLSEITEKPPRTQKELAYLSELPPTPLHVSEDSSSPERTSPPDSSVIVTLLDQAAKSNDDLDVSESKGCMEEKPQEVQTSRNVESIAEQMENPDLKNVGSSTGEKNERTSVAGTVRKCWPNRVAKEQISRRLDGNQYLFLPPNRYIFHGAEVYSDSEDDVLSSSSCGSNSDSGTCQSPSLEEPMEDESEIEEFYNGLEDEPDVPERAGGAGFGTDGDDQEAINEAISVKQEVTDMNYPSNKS
Test: Trp mass spectrometry assay (SIRT1 activation)
Format: biochemical
Conditions: for Emax: percent maximum fold activation of SIRT1, read-out: Tryp % Fold Act
How it was run: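 N-His-tagged SIRT1 (10 nM), expressed in E. coli, was incubated with 0.5 μM Ac-RHKK(Ac)W-NH2 peptide and 120 μM NAD+ for 25 min at 25 °C in HEPES pH 7.5 with […]. The reaction was stopped with formic acid and O-acetyl-ADP-ribose or deacetylated peptide was quantified by mass spectrometry. Results are given as EC1.5 and percent maximal activation relative to DMSO control.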

[1] = concentration of test compound that results in 150% activation of SIRT1, Trp peptide substrate
[2] = Trp mass spectrometry assay, EC1.5 = concentration giving 150% activation of SIRT1
[3] = Trp mass spectrometry assay, EC1.5 = concentration of test compound that results in 150% activation of SIRT1

Tryp AVG EC1.5 (μM) [1] | Emax (Trp peptide substrate) [%] | Tryp AVG EC1.5 (μM) [2] | Emax (Trp mass spectrometry assay) [%] | Tryp AVG EC1.5 (μM) [3] | SMILES
A (EC1.5<1 μM) | ≥ 150 |  |  |  | Cc1cncc(NC(=O)N2c3nc(N4CCCC(C(F)(F)F)C4)ccc3N3CC[C@H]2C3)c1 (stereo partly drawn) [Example 230]
 |  | A (EC1.5<1 μM) | ≥ 150 |  | O=C(Nc1cccc(-c2cccnc2)c1)N1c2nc(-c3cccc(C(F)(F)F)c3)ccc2N2CC[C@H]1C2 [Example 660]
C (EC1.5>25 μM) | < 150 |  |  |  | Cc1ccncc1-c1ccc2c(n1)N(C(=O)Nc1ccncn1)[C@H]1CCCN2C1 [Example 518]
 |  |  | ≥ 150 |  | Cc1cc(C)nc(NC(=O)N2c3nc(-c4cccc(C(F)(F)F)c4)ccc3N3CC[C@H]2C3)c1 [Example 13]
A (EC1.5<1 μM) | ≥ 150 |  |  |  | O=C(Nc1cnccn1)N1c2nc(-c3ccc(Cl)c(C(F)(F)F)c3)ccc2N2CC[C@H]1C2 [Example 435]
B (EC1.5 1-25 μM) | ≥ 150 |  |  |  | O=C(Nc1cnccn1)N1c2nc(-c3cncc(F)c3)ccc2N2CC[C@H]1C2 [Example 400]
 |  | B (EC1.5 1-25 μM) | ≥ 150 |  | O=C(Nc1ccncn1)N1c2nc(-c3cncc(C(F)(F)F)c3)ccc2N2C[C@@H](O)[C@H]1C2 [Example 700]
 |  |  | ≥ 150 |  | Cc1cc(OCC(O)CO)nc(NC(=O)N2c3nc(-c4cccc(F)c4)ccc3N3CC[C@H]2C3)n1 (stereo partly drawn) [Example 64]
B (EC1.5 1-25 μM) | ≥ 150 |  |  |  | N#Cc1cccc(-c2ccc3c(n2)N(C(=O)Nc2cccnn2)[C@@H]2CCCN3C2)c1 [Example 226]
A (EC1.5<1 μM) | ≥ 150 |  |  |  | O=C(Nc1cnccn1)N1c2nc(-c3cccc(N4CCC(F)(F)C4)c3)ccc2N2CC[C@H]1C2 [Example 239]
 |  | B (EC1.5 1-25 μM) | ≥ 150 |  | CC(C)(C)c1nnc(NC(=O)N2c3nc(-c4cccc(C(F)(F)F)c4)ccc3N3CC[C@H]2C3)s1 [Example 649]
A (EC1.5<1 μM) | ≥ 150 |  |  |  | O=C(Nc1cccc(-c2cnco2)c1)N1c2nc(-c3cccc(C(F)(F)F)c3)ccc2N2CCC1CC2 [Example 473]
 |  | A (EC1.5<1 μM) | ≥ 150 |  | Cc1cncc(NC(=O)N2c3nc(-c4cccc(Cl)c4)ccc3N3C[C@@H](O)[C@H]2C3)c1 [Example 676]
 |  |  | ≥ 150 | B (EC1.5 1-25 μM) | COc1cnc(NC(=O)N2c3nc(-c4cccc(Cl)c4)ccc3N3CC[C@H]2C3)cn1 [Example 124]
A (EC1.5<1 μM) | ≥ 150 |  |  |  | O=C(Nc1cccnc1)N1c2nc(-c3cccc(C(F)(F)F)c3)ccc2N2CCC[C@H]1C2 [314 (5)]
A (EC1.5<1 μM) | ≥ 150 |  |  |  | Cc1cncc(-c2ccc3c(n2)N(C(=O)Nc2nc(C)c(C)s2)[C@H]2CCCN3C2)c1 [Example 507]
 |  | A (EC1.5<1 μM) | ≥ 150 |  | O=C(Nc1cccc(-c2cnco2)c1)N1c2nc(N3CCC[C@@H](C(F)(F)F)C3)ccc2N2CC[C@H]1C2 [Example 717]
A (EC1.5<1 μM) | ≥ 150 |  |  |  | Cc1cc(-c2ccc3c(n2)N(C(=O)Nc2nc(C)c(C)s2)[C@H]2CCN3C2)ccn1 [Example 481]
 |  |  | ≥ 150 | B (EC1.5 1-25 μM) | O=C(Nc1ccc(F)cn1)N1c2nc(-c3cccc(N4CCCC4)c3)ccc2N2CC[C@H]1C2 [Example 131]
 |  |  | ≥ 150 | A (EC1.5<1 μM) | COc1cc(NC(=O)N2c3nc(-c4cccc(C#N)c4)ccc3N3CC[C@H]2C3)ncn1 [Example 140]
 |  |  | ≥ 150 |  | O=C(Nc1cccnc1)N1c2nc(-c3cccc(Cl)c3)ccc2N2CC[C@H]1C2 [Example 107]

Tryp AVG EC1.5 (μM) [1] | Emax (Trp peptide substrate) [%] | Tryp AVG EC1.5 (μM) [2] | Emax (Trp mass spectrometry assay) [%] | Tryp AVG EC1.5 (μM) [3] | SMILES
C (EC1.5>25 μM) | < 150 |  |  |  | Cc1nc(NC(=O)N2c3nc(N4CCCC(C(F)(F)F)C4)ccc3N3CCC[C@@H]2C3)sc1C (stereo partly drawn) [Example 313]
 |  | A (EC1.5<1 μM) | ≥ 150 |  | CS(=O)(=O)c1cccc(-c2ccc3c(n2)N(C(=O)Nc2cncc(-c4cnco4)c2)[C@H]2CCN3C2)c1 [Example 724]
 |  |  | ≥ 150 | A (EC1.5<1 μM) | O=C(Nc1cncc(F)c1)N1c2nc(-c3cccc(OC(F)(F)F)c3)ccc2N2CC[C@H]1C2 [Example 174]
 |  |  | ≥ 150 | B (EC1.5 1-25 μM) | O=C(Nc1cccnn1)N1c2nc(-c3cccc(C(F)(F)F)c3)ccc2N2CCC[C@@H]1C2 [Example 196]
A (EC1.5<1 μM) | ≥ 150 |  |  |  | COc1cc(NC(=O)N2c3nc(-c4cccc(C(F)(F)F)c4)ccc3N3CCC[C@@H]2C3)ncn1 [Example 274]
 |  |  | ≥ 150 | B (EC1.5 1-25 μM) | O=C(Nc1ccncc1Cl)N1c2nc(-c3cccc(C(F)(F)F)c3)ccc2N2CC[C@H]1C2 [Example 96]
 |  |  | ≥ 150 | A (EC1.5<1 μM) | O=C(Nc1ccc(F)cn1)N1c2nc(-c3ccnc(C(F)(F)F)c3)ccc2N2CC[C@H]1C2 [Example 128]
A (EC1.5<1 μM) | ≥ 150 |  |  |  | CC(C)(C)OC(=O)NCCn1cc(-c2cccc(NC(=O)N3c4nc(-c5cccc(C(F)(F)F)c5)ccc4N4CCC[C@H]3C4)c2)nn1 [Example 604]
B (EC1.5 1-25 μM) | ≥ 150 |  |  |  | O=C(Nc1ccncc1)N1c2nc(N3CCCC(C(F)(F)F)C3)ccc2N2CCC[C@@H]1C2 (stereo partly drawn) [Example 305]
 |  | A (EC1.5<1 μM) | ≥ 150 |  | CS(=O)(=O)Nc1cccc(NC(=O)N2c3nc(-c4cccc(C(F)(F)F)c4)ccc3N3CC[C@H]2C3)c1 [Example 642]
B (EC1.5 1-25 μM) | ≥ 150 |  |  |  | O=C(NCCCN1CCOCC1)N1c2nc(-c3cccc(C(F)(F)F)c3)ccc2N2CC[C@H]1C2 [Example 612]
B (EC1.5 1-25 μM) | ≥ 150 |  |  |  | Cn1nccc1-c1ccc2c(n1)N(C(=O)Nc1cccnc1)[C@H]1CCN2C1 [Example 524]
B (EC1.5 1-25 μM) | ≥ 150 |  |  |  | COc1cncc(NC(=O)N2c3nc(N4CCCC(C(F)(F)F)C4)ccc3N3CCC[C@@H]2C3)c1 (stereo partly drawn) [Example 309]
B (EC1.5 1-25 μM) | ≥ 150 |  |  |  | O=C(NCCc1ccccc1)N1c2nc(-c3cccc(C(F)(F)F)c3)ccc2N2CC[C@H]1C2 [Example 598]
A (EC1.5<1 μM) | ≥ 150 |  |  |  | O=C(Nc1ccc(F)cn1)N1c2nc(N3CCCC(C(F)(F)F)C3)ccc2N2CCC[C@H]1C2 (stereo partly drawn) [Example 359]
 |  | A (EC1.5<1 μM) | ≥ 150 |  | O=C(Nc1ccc2[nH]ncc2c1)N1c2nc(-c3cccc(C(F)(F)F)c3)ccc2N2CC[C@H]1C2 [Example 666]
B (EC1.5 1-25 μM) | ≥ 150 |  |  |  | O=C(Nc1cccnc1)N1c2nc(-c3cncc(F)c3)ccc2N2CCC1CC2 [Example 572]
B (EC1.5 1-25 μM) | ≥ 150 |  |  |  | O=C(NCCc1cccnc1)N1c2nc(-c3cccc(C(F)(F)F)c3)ccc2N2CC[C@H]1C2 [Example 615]
A (EC1.5<1 μM) | ≥ 150 |  |  |  | COc1cc(NC(=O)N2c3nc(-c4cncc(C)c4)ccc3N3CCC[C@H]2C3)ncn1 [EX-527, reference compound]
A (EC1.5<1 μM) | ≥ 150 |  |  |  | O=C(Nc1ccccn1)N1c2nc(-c3cccc(C(F)(F)F)c3)ccc2N2C[C@@H](O)[C@H]1C2 [Example 601]
 |  | B (EC1.5 1-25 μM) | ≥ 150 |  | C#CCOc1cccc(NC(=O)N2c3nc(-c4ccc(C5(C(F)(F)F)N=N5)cc4)ccc3N3CC[C@H]2C3)c1 [Example 802]

Source: patent US9765075B2, “Substituted bridged urea analogs as sirtuin modulators” (GLAXOSMITHKLINE LLC, priority 2013, dated 2017)
